The source of these data is the SangsterLogP compilation.

SMILES strings stand for the structures.

Data set [1] in a line: method code SF, from DOI: 10.1021/jm00063a015, PMID: 8388471.

Consider `CN(Cc1ccccc1)C(=O)C(Cc1ccccc1)NC(=O)C(Cc1cn(C(=O)CCCCCCN)c2ccccc12)NC(=O)CC1NC(=O)C2C3CCC(CC3)N2C1=O` (stereo unspecified), for which the logP was found to be 2.48.

As for `CN(Cc1ccccc1)C(=O)C(Cc1ccccc1)NC(=O)C(Cc1cn(C(=O)OCCCCCCN)c2ccccc12)NC(=O)CC1NC(=O)C2C3CCC(CC3)N2C1=O` (stereo unspecified), the logP was determined as 2.95.

Molecule `CC(=O)n1cc(CC(NC(=O)CC2NC(=O)C3C4CCC(CC4)N3C2=O)C(=O)NC(Cc2ccccc2)C(=O)N(C)Cc2ccccc2)c2ccccc21` (stereo unspecified) yielded a logP of 3.69.

Consider `CN(Cc1ccccc1)C(=O)[C@H](Cc1ccccc1)NC(=O)[C@@H](Cc1cn(C(=O)OC(C)(C)C)c2ccccc12)NC(=O)CC1NC(=O)C2C3CCC(CC3)N2C1=O` (stereo partly specified), for which the logP was 5.33.

As to `CN(Cc1ccccc1)C(=O)C(Cc1ccccc1)NC(=O)C(Cc1cn(C)c2ccccc12)NC(=O)CC1NC(=O)C2C3CCC(CC3)N2C1=O` (stereo unspecified), the logP came out at 3.85.

`CCCCCCCC(=O)n1cc(C[C@@H](NC(=O)CC2NC(=O)C3C4CCC(CC4)N3C2=O)C(=O)N[C@@H](Cc2ccccc2)C(=O)N(C)Cc2ccccc2)c2ccccc21` (stereo partly specified) yielded a logP of 7.29.

The molecule `CN(Cc1ccccc1)C(=O)C(Cc1ccccc1)NC(=O)C(Cc1c[nH]c2ccccc12)NC(=O)CC1NC(=O)C2C3CCC(CC3)N2C1=O` (stereo unspecified) showed a logP of 3.18.

In data set [1], `CN(Cc1ccccc1)C(=O)C(Cc1ccccc1)NC(=O)C(Cc1cn(C(=O)OCc2ccccc2)c2ccccc12)NC(=O)CC1NC(=O)C2C3CCC(CC3)N2C1=O` (stereo unspecified) gave a logP of 5.66.

With `COC(=O)n1cc(CC(NC(=O)CC2NC(=O)C3C4CCC(CC4)N3C2=O)C(=O)NC(Cc2ccccc2)C(=O)N(C)Cc2ccccc2)c2ccccc21` (stereo unspecified), the logP amounted to 4.05.

Consider `CN(Cc1ccccc1)C(=O)C(Cc1ccccc1)NC(=O)C(Cc1cn(C=O)c2ccccc12)NC(=O)CC1NC(=O)C2C3CCC(CC3)N2C1=O` (stereo unspecified), for which the logP in data set [1] turned out to be 3.47.

`CN(Cc1ccccc1)C(=O)C(Cc1ccccc1)NC(=O)C(Cc1cn(C(=O)CCC(=O)O)c2ccccc12)NC(=O)CC1NC(=O)C2C3CCC(CC3)N2C1=O` (stereo unspecified): the logP is 3.15.
